Experimental findings from patent US20250109139A1, “TRICYCLIC COMPOUND, AND PREPARATION METHOD THEREFOR AND USE THEREOF” (SHANGHAITECH UNIVERSITY, priority 2022, published 2025) are described below.

Where two headings read alike, the source gives them in different places.

Data set [1] concerns MK801-induced hyperlocomotion in mice. As to the kind of experiment: Open field test, MK801-induced hyperlocomotion (schizophrenia-like model). In kind it is in vivo, C57B6 male mice. The note with it: for inhibition of MK801-induced hyperlocomotion in mice (in words): at different doses. On the procedure: Experimental method: The experimental animals were C57B6 male mice, n=8 in each group. In this model, C57B6 mice were used as experimental animals. Hyperlocomotion of the mice in open field was induced by acute injection of a NMDA antagonist MK801, and modeled to test the inhibitory effect of different compounds on hyperlocomotion phenotype induced by MK801 All mouse behavior experiments were carried out during the light period. The whole process was recorded by the camera, and locomotive data were tracked and analyzed by behavioral tracking software. The compounds were administered intraperitoneally. Immediately after the injection, the mice entered the open field and their movement trajectories were recorded by the camera. After 30 minutes, the mice received 0.2 mg/kg of MK801 by intraperitoneal injection and returned to the open field immediately after administration, and the movement trajectories were further recorded for 120 minutes. The accumulative travelled distance of the mice was counted in a 5-minute bin. Data statistics were performed using Student-t-test analysis, *p<0.05, **p<0.01, ***p<0.001, ****p<0.0001. The total travelled distance of the mice in the 0-45 minute interval after administration of the compounds of the present disclosure at different doses in combination with MK801 (0.2 mg/kg) is shown in Table 10.

A short description of data set [2]: Pharmacokinetics in SD rats, single dose intragastric and intravenous. In kind it is in vivo. Particulars: for Cmax / half-life / Vd / AUC(0-t) / clearance / MRT / bioavailability / Tmax: male, rat, plasma; for half-life: read-out: Elimination half-life t1/2 (converted); for Vd: read-out: Apparent volume of distribution Vdss; for AUC(0-t): read-out: Area under the drug-time curve AUC0-t; for clearance: read-out: Clearance CL; for MRT: read-out: Mean residence time MRT; for bioavailability: read-out: Bioavailability F; for Tmax: read-out: Time to peak concentration tmax. The method, then:
Testing of pharmacokinetic properties of compounds administered in a single dose to SD rats by intragastric administration and intravenous injection
After the compound was administered in a single dose to male SD rats, blood samples were collected at different time points. The concentration of the compound in the plasma of the rats was determined by LC-MS/MS and the relevant pharmacokinetic parameters were calculated to investigate the pharmacokinetics of the compound in rats.
Male SD rats were provided by Suzhou JOINN Laboratories Co., Ltd. SD rats were fasted with free access to water for 12 to 14 hours one day before administration, and were fed 4 hours after administration.
For each compound, the […] were divided into two groups: intravenous injection and intragastric administration, with 3 rats in each group. For both intravenous injection (administered at a dose of 3 mg/kg and a concentration of 0.6 mL/kg) and intragastric administration (administered at a dose of 10 mg/kg and a concentration of 1 mL/kg), 5% DMSO+5% Solutol+90% saline was used as the vehicle.
Sample collection: 0.10 mL of blood was collected from the orbit of each animal in IV/PO groups each time at 5 minutes, 15 minutes, 30 minutes, 1 hour, 2 hours, 4 hours, 6 hours, 8 hours, and 24 hours after administration of the test compound, and anticoagulated with EDTA-K2. Blood samples were placed on ice after collection, and plasma was separated by centrifugation within 30 minutes (centrifugation conditions: 5000 rpm, 10 minutes, 4° C.). The collected plasma was stored at −80° C. before analysis.
Data processing: The data acquisition and control system software was Analyst 1.5.1 software (Applied Biosystem). The peak integration method of chromatographic samples was automatic integration; the ratio of the peak area of the sample to the peak area of the internal standard was used as an index for regression with the concentration of the sample. […] Pharmacokinetic parameters were analyzed with a non-compartmental model using WinNonlin Professional v6.3 (Pharsight, USA). Cmax was the measured maximum plasma concentration, the area under the plasma concentration-time curve AUC(0→t) was calculated by the trapezoidal method, and tmax was the time to peak plasma concentration after administration. Experimental data were presented as “Mean±SD” (n≥3) or “Mean” (n=2).

The target in data set [3] is dopamine D2 receptors (Homo sapiens (Human), UniProt P14416). Put plainly: Dopamine D2 receptor radioligand competition binding assay ([3H]-Methylspiperone). Particulars: [3H]-Methylspiperone 0.3 to 0.5 nM, 293T membranes. The method, boiled down:
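Membranes from cells transfected with human D2 receptor, PEI-mediated; competition with [3H]-methylspiperone for 2 h at room temperature in the dark.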
Background: Loss of bound radioactivity is the signal in a displacement assay; it reports binding, not function.

[4] abbreviates: MK801 0.2 mg/kg + compound 0.0156 mg/kg i.p.
The mark [5] stands for this setting: MK801 0.2 mg/kg + compound 0.0625 mg/kg i.p.
Where [6] appears, read: MK801 0.2 mg/kg + compound 0.25 mg/kg i.p.
[7] abbreviates: intravenous injection, 3 mg/kg, read-out: Peak drug concentration C0 or Cmax.
[8] abbreviates: oral administration, 10 mg/kg, read-out: Peak drug concentration Cmax.
Where [9] appears, read: read-out: Affinity pKi ± SEM (converted).

In general, clearance refers to the volume of plasma or blood freed of the substance per unit of time. For orientation: MRT means the average time that molecules of a dose stay in the body.

dopamine D2 receptors, sequence (P14416 whole entry): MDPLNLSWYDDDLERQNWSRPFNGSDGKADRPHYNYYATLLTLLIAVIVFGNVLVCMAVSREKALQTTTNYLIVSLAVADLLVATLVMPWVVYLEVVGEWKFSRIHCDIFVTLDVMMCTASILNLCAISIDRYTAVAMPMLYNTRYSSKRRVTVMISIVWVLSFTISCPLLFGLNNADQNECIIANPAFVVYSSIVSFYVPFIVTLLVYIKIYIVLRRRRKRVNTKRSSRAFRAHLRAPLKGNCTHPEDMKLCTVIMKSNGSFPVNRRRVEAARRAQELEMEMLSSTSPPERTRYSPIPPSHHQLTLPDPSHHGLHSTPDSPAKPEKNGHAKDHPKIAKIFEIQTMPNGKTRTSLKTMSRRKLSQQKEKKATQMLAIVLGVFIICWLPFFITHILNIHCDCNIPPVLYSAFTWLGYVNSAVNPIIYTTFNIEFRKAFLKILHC

As to `COc1cccc2c3c(oc12)CN(CCCCOc1ccc2ccc(=O)[nH]c2c1)CC3` [I-A1, 7-(4-(8-methoxy-3,4-dihydrobenzofuro[2,3-c]pyridin-2(1H)-yl)butoxy)quinolin-2(1H)-one], in data set [1] (setting [4]), the “Distance travelled in 45 minutes” value worked out at 9023 cm. In data set [1] (setting [5]), the “Distance travelled in 45 minutes” value was found to be 10706 cm. Moreover, the “Distance travelled in 45 minutes” value in data set [1] (setting [6]) is reported as 3630 cm. In data set [1], the “inhibition of MK801-induced hyperlocomotion in mice (in words)” value (“inhibition” for short) was “significantly inhibit”. In data set [2] (intravenous injection, 3 mg/kg), the “Area under the drug-time curve AUC0-t” value was found to be 2991 ± 212 ng·h/mL, the “Clearance CL” value turned out to be 16.7 ± 1.12 mL/min/kg and the “Elimination half-life t1/2” value came out at 3.48 ± 0.1 h. Moreover, in data set [2] (setting [7]), the Cmax was determined as 1330 ± 117 ng/mL. In data set [2] (oral administration, 10 mg/kg), the half-life is 3.91 ± 0.3 h, the “Area under the drug-time curve AUC0-t” value was determined as 8916 ± 3642 ng·h/mL, the “Bioavailability F” value stood at 88.8 ± 36% and the “Peak drug concentration Cmax” value amounted to 1555 ± 362 ng/mL. Besides, the “Time to peak concentration tmax” value in data set [2] (oral administration, 10 mg/kg) amounted to 0.50 ± 0 h. Moreover, the “Affinity pKi ± SEM” value in data set [3] was “(7.07 ± 0.02)”. Besides, in data set [3] (read-out: Affinity Ki), the Ki was 84.4 nM.

Consider `COc1cccc2c3c(oc12)CN(CC[C@H]1CC[C@H](NC(=O)N(C)C)CC1)CC3` [I-A12, 3-(trans-4-(2-(8-methoxy-3,4-dihydrobenzofuro[2,3-c]pyridin-2(1H)-yl)ethyl)cyclohexyl)-1,1-dimethylurea], for which the “Distance travelled in 45 minutes” value in data set [1] (setting [4]) stood at 12729 cm. In addition, in data set [1] (setting [5]), the “Distance travelled in 45 minutes” value came to 5648 cm. For the same compound, the “Distance travelled in 45 minutes” value in data set [1] (setting [6]) stood at 2267 cm. Besides, in data set [1], the “inhibition” value is “significantly inhibit”. Moreover, in data set [2] (intravenous injection, 3 mg/kg), the Vd is 9.14 ± 1.5 L/kg, the AUC(0-t) is 1100 ± 215 ng·h/mL, the clearance amounted to 45.4 ± 7.9 mL/min/kg and the half-life was 4.14 ± 0.7 h. The MRT in data set [2] (intravenous injection, 3 mg/kg) was 3.36 ± 0.2 h. Besides, in data set [2] (setting [7]), the Cmax stood at 824 ± 299 ng/mL. In data set [2] (oral administration, 10 mg/kg), the AUC(0-t) is 5660 ± 2660 ng·h/mL, the bioavailability was determined as 151 ± 71%, the half-life was 3.58 ± 0.5 h and the mean residence time MRT stood at 4.42 ± 0.66 h. In addition, in data set [2] (oral administration, 10 mg/kg), the Tmax is 0.833 ± 1 h. For the same compound, in data set [2] (setting [8]), the Cmax was found to be 963 ± 322 ng/mL. The Ki in data set [3] (read-out: Affinity Ki) worked out at 436 nM. In addition, the Ki in data set [3] (setting [9]) is 372 nM.

Take `COc1cccc2c3c([nH]c12)CN(CC[C@H]1CC[C@H](NC(=O)N(C)C)CC1)CC3` [I-B7, 3-(trans-4-(2-(8-methoxy-1,3,4,9-tetrahydro-2H-pyrido[3,4-b]indol-2-yl)ethyl)cyclohexyl)-1,1-dimethylurea]: the “Distance travelled in 45 minutes” value in data set [1] (setting [6]) is on record as 13668 cm. The “Distance travelled in 45 minutes” value in data set [1] (MK801 0.2 mg/kg + compound 1 mg/kg i.p.) is listed as 10199 cm. Besides, the “Distance travelled in 45 minutes” value in data set [1] (MK801 0.2 mg/kg + compound 4 mg/kg i.p.) is 4360 cm. Moreover, in data set [1], the “inhibition” value is “significantly inhibit”. Besides, in data set [2] (intravenous injection, 3 mg/kg), the Vd was 7.56 ± 0.4 L/kg, the AUC(0-t) was 2350 ± 127 ng·h/mL, the clearance amounted to 21 ± 1.2 mL/min/kg and the half-life was 3.91 ± 0.3 h. Besides, the MRT in data set [2] (intravenous injection, 3 mg/kg) came out at 6.01 ± 0.2 h. In addition, the Cmax in data set [2] (setting [7]) is 330 ± 61 ng/mL. For the same compound, in data set [2] (oral administration, 10 mg/kg), the AUC(0-t) was 10200 ± 945 ng·h/mL, the bioavailability is 128 ± 12%, the half-life was 5.12 ± 0.7 h and the MRT stood at 8.08 ± 0.23 h. The Tmax in data set [2] (oral administration, 10 mg/kg) turned out to be 3.17 ± 4 h. In addition, the Cmax in data set [2] (setting [8]) came out at 734 ± 34 ng/mL. Moreover, the Ki in data set [3] (read-out: Affinity Ki) stood at 2.71 nM. Besides, the Ki in data set [3] (setting [9]) was 1.82 nM.

With `COc1cccc2c1cc1n2CCN(CCCCOc2ccc3ccc(=O)[nH]c3c2)C1` [I-C1, 7-(4-(9-methoxy-3,4-dihydropyrazino[1,2-a]indol-2(1H)-yl)butoxy)quinolin-2(1H)-one], in data set [2] (intravenous injection, 3 mg/kg), the Vd was found to be 2.16 ± 0.1 L/kg, the AUC(0-t) is 4970 ± 751 ng·h/mL, the clearance worked out at 10.1 ± 1.4 mL/min/kg and the half-life was 3.63 ± 0.7 h. Also, in data set [2] (intravenous injection, 3 mg/kg), the MRT is 3.58 ± 0.3 h. The Cmax in data set [2] (setting [7]) worked out at 3310 ± 349 ng/mL. Also, in data set [2] (oral administration, 10 mg/kg), the AUC(0-t) came out at 8140 ± 2050 ng·h/mL, the bioavailability is 48.8%, the half-life is 7.36 ± 4.2 h and the MRT came out at 10 ± 6.5 h. In data set [2] (oral administration, 10 mg/kg), the Tmax stood at 0.25 h. The Cmax in data set [2] (setting [8]) was 1150 ± 198 ng/mL. For the same compound, the Ki in data set [3] (read-out: Affinity Ki) was found to be 401 nM. Also, the Ki in data set [3] (setting [9]) was 269 nM.

With `COc1cccc2c1cc1n2CCN(CCCCOc2ccc3c(c2)NC(=O)CC3)C1` [I-C2, 7-(4-(9-methoxy-3,4-dihydropyrazino[1,2-a]indol-2(1H)-yl)butoxy)-3,4-dihydroquinolin-2(1H)-one], in data set [2] (intravenous injection, 3 mg/kg), the Vd came out at 1.51 ± 0.3 L/kg, the AUC(0-t) turned out to be 2790 ± 842 ng·h/mL, the clearance is 19.1 ± 6.8 mL/min/kg and the half-life is 1.79 ± 1.1 h. The MRT in data set [2] (intravenous injection, 3 mg/kg) was 1.38 ± 0.3 h. Further, the Cmax in data set [2] (setting [7]) is 3340 ± 629 ng/mL. Besides, in data set [2] (oral administration, 10 mg/kg), the AUC(0-t) is 7730 ± 467 ng·h/mL, the bioavailability was 82.4 ± 5%, the half-life is 4.09 ± 1.6 h and the MRT was found to be 5.46 ± 0.09 h. Further, the Tmax in data set [2] (oral administration, 10 mg/kg) is 0.33 ± 0.14 h. In data set [2] (setting [8]), the Cmax came to 1310 ± 701 ng/mL. Also, the Ki in data set [3] (read-out: Affinity Ki) turned out to be 221 nM. The Ki in data set [3] (setting [9]) is 61.7 nM.
